According to DBAASP:
Values after ≈ are worked out from the molar mass of the structure shown. Values belong to the compound of their own block, whether it stands above or below them.

How the values were obtained:
Assay in all cases: ≥ marks a high value that may be exact or a test limit, other limits are often not marked, values filed in µg/mL are converted to µM
[1] = tested on: Staphylococcus epidermidis
[2] = tested on: Pseudomonas aeruginosa PAO1
Candida albicans = tested on: Candida albicans
[3] = tested on: Enterococcus faecalis ATCC 29212
[4] = tested on: Pseudomonas aeruginosa 910
[5] = tested on: Pseudomonas aeruginosa 919
[6] = tested on: Pseudomonas aeruginosa 253
[7] = tested on: Staphylococcus aureus ATCC 25923
Escherichia coli UB1005 = tested on: Escherichia coli UB1005
[8] = tested on: Salmonella enterica serovar Typhimurium
[9] = tested on: Pseudomonas aeruginosa H103
[10] = tested on: Corynebacterium glutamicum ATCC 13032
[11] = tested on: Escherichia coli ATCC 25922
Aureobasidium pullulans = tested on: Aureobasidium pullulans
[12] = tested on: Pseudomonas aeruginosa ATCC 27853
[13] = tested on: Candida albicans ATCC 10231
[14] = tested on: Staphylococcus aureus ATCC 9144
Escherichia coli BL21 = tested on: Escherichia coli BL21
[15] = tested on: Staphylococcus aureus ATCC 6538P
[16] = tested on: Staphylococcus aureus ATCC BAA-41
Listeria monocytogenes = tested on: Listeria monocytogenes
[17] = tested on: Salmonella enterica subsp. enterica serovar Typhimurium ATCC 14028s
[18] = tested on: Pseudomonas aeruginosa K799
[19] = tested on: Salmonella enterica subsp. enterica serovar Pullorum C79-13
[20] = tested on: Salmonella enterica subsp. enterica serovar Typhi CMCC 50071
[21] = tested on: Staphylococcus epidermidis ATCC 12228
[22] = tested on: Salmonella enterica subsp. enterica serovar Typhimurium ATCC 14028
[23] = tested on: Staphylococcus aureus ATCC 29213
[24] = tested on: Salmonella enterica subsp. enterica serovar Typhimurium C77-31
[25] = tested on: Staphylococcus aureus ATCC 6538
[26] = tested on: Escherichia coli ATCC 2592
[27] = tested on: Candida albicans ATCC 36232
[28] = tested on: Pseudomonas aeruginosa ATCC 9027
[29] = tested on: Micrococcus luteus ATCC 9341
Bacillus cereus = tested on: Bacillus cereus
Escherichia coli = tested on: Escherichia coli
Leuconostoc lactis = tested on: Leuconostoc lactis
Pseudomonas aeruginosa = tested on: Pseudomonas aeruginosa
Micrococcus luteus = tested on: Micrococcus luteus
Enterobacter cloacae = tested on: Enterobacter cloacae
Streptococcus uberis = tested on: Streptococcus uberis
Pasteurella multocida = tested on: Pasteurella multocida
Listeria innocua = tested on: Listeria innocua
Enterococcus faecalis = tested on: Enterococcus faecalis

MIC [1]: 1.33 µM (≈ 2 µg/mL) | MIC [2]: 16 µM (≈ 24.1 µg/mL) | MIC (Candida albicans): 5.3 µM (≈ 7.99 µg/mL) | MIC [3]: 2.65 µM (≈ 4 µg/mL) | MIC [4]: 16 µM (≈ 24.1 µg/mL) | MIC [5]: 16 µM (≈ 24.1 µg/mL) | MIC [6]: 16 µM (≈ 24.1 µg/mL) | MIC [7]: 5.3 µM (≈ 7.99 µg/mL) | MIC (Escherichia coli UB1005): 2.65 µM (≈ 4 µg/mL) | MIC [8]: 5.3 µM (≈ 7.99 µg/mL) | MIC [9]: 10.6 µM (≈ 16 µg/mL)
SMILES: CC[C@H](C)[C@H](NC(=O)[C@H](CCCN=C(N)N)NC(=O)[C@H](C)NC(=O)[C@H](CC(C)C)NC(=O)[C@@H](N)CCCN=C(N)N)C(=O)N[C@H](C(=O)N[C@H](C(=O)N[C@H](C(=O)N[C@@H](CCCN=C(N)N)C(=O)N[C@@H](Cc1c[nH]c2ccccc12)C(=O)N[C@@H](C)C(=O)N[C@@H](CCCN=C(N)N)C(N)=O)[C@@H](C)CC)C(C)C)C(C)C [RLARIVVIRWAR]

MIC [10]: 1.6 µM (≈ 2.42 µg/mL) | MIC [11]: 3.1 µM (≈ 4.69 µg/mL) | MIC (Aureobasidium pullulans): 25 µM (≈ 37.8 µg/mL) | MIC [12]: 3.1 µM (≈ 4.69 µg/mL) | MIC [13]: 25 µM (≈ 37.8 µg/mL) | MIC [14]: 12.5 µM (≈ 18.9 µg/mL)
SMILES: CC(C)[C@H](NC(=O)[C@H](C)NC(=O)[C@H](CCCN=C(N)N)NC(=O)[C@H](CCCN=C(N)N)NC(=O)[C@H](Cc1c[nH]c2ccccc12)NC(=O)[C@H](Cc1c[nH]c2ccccc12)NC(=O)CN)C(=O)N[C@@H](C)C(=O)N[C@@H](CCCCN)C(=O)N[C@H](C(=O)N[C@@H](CCCN=C(N)N)C(=O)N[C@@H](CCCCN)C(N)=O)C(C)C [GWWRRAVAKVRK]

MIC [1]: 0.25 µM (≈ 0.464 µg/mL) | MIC [2]: 1.41 µM (≈ 2.63 µg/mL) | MIC (Escherichia coli BL21): 1 µM (≈ 1.86 µg/mL) | MIC [15]: 5.66 µM (≈ 10.5 µg/mL) | MIC [16]: 16 µM (≈ 29.7 µg/mL)
SMILES: CC[C@H](C)[C@H](NC(=O)[C@H](CCCCN)NC(=O)[C@H](CCCCN)NC(=O)[C@H](Cc1ccccc1)NC(=O)[C@H](CC(C)C)NC(=O)[C@H](CCCCN)NC(=O)[C@H](Cc1c[nH]c2ccccc12)NC(=O)[C@@H](N)CCCCN)C(=O)NCC(=O)N[C@@H](CCCCN)C(=O)N[C@H](C(=O)N[C@@H](CC(C)C)C(=O)N[C@@H](CCCCN)C(=O)N[C@@H](CCCCN)C(=O)N[C@@H](CC(C)C)C(=O)O)C(C)C [KWKLFKKIGKVLKKL]

MIC [2]: 4 µM (≈ 7.74 µg/mL) | MIC [4]: 5.66 µM (≈ 10.9 µg/mL) | MIC [5]: 22.6 µM (≈ 43.8 µg/mL) | MIC [6]: 8 µM (≈ 15.5 µg/mL)
SMILES: CC[C@H](C)[C@H](NC(=O)[C@@H](N)Cc1ccccc1)C(=O)N[C@@H](CCCCN)C(=O)N[C@@H](Cc1c[nH]c2ccccc12)C(=O)N[C@@H](CCCN=C(N)N)C(=O)N[C@@H](Cc1ccccc1)C(=O)N[C@@H](CCCN=C(N)N)C(=O)N[C@@H](CCCN=C(N)N)C(=O)N[C@@H](Cc1c[nH]c2ccccc12)C(=O)N[C@@H](CCCCN)C(=O)N[C@@H](CCCCN)C(=O)N[C@@H](CCCN=C(N)N)C(=O)N[C@@H](CCCCN)C(N)=O [FIKWRFRRWKKRK]

MIC [1]: 0.688 µM (≈ 0.999 µg/mL) | MIC [3]: 2.75 µM (≈ 4 µg/mL) | MIC (Listeria monocytogenes): 0.172 µM (≈ 0.25 µg/mL) | MIC [7]: 2.75 µM (≈ 4 µg/mL) | MIC (Escherichia coli UB1005): 1.38 µM (≈ 2 µg/mL) | MIC [17]: 22 µM (≈ 32 µg/mL) | MIC [18]: 11 µM (≈ 16 µg/mL)
SMILES: CC[C@H](C)[C@H](NC(=O)[C@H](CCCN=C(N)N)NC(=O)[C@H](CO)NC(=O)[C@H](CC(C)C)NC(=O)[C@@H](N)CCCN=C(N)N)C(=O)N[C@H](C(=O)N[C@H](C(=O)N[C@H](C(=O)N[C@@H](CCCN=C(N)N)C(=O)N[C@H](C(=O)N[C@@H](CO)C(=O)N[C@@H](CCCN=C(N)N)C(N)=O)C(C)C)[C@@H](C)CC)C(C)C)C(C)C [RLSRIVVIRVSR]

MIC [19]: 8 µM (≈ 15.7 µg/mL) | MIC [7]: 16 µM (≈ 31.4 µg/mL) | MIC (Escherichia coli UB1005): 16 µM (≈ 31.4 µg/mL) | MIC [20]: ≥ 128 µM | MIC [21]: 8 µM (≈ 15.7 µg/mL) | MIC [22]: 128 µM (≈ 252 µg/mL) | MIC [23]: > 128 µM | MIC [24]: 16 µM (≈ 31.4 µg/mL)
SMILES: NC(=O)CC[C@H](NC(=O)[C@H](Cc1c[nH]c2ccccc12)NC(=O)[C@H](CCCN=C(N)N)NC(=O)[C@H](CCCN=C(N)N)NC(=O)[C@H](Cc1c[nH]c2ccccc12)NC(=O)[C@@H](N)Cc1ccccc1)C(=O)N[C@@H](Cc1c[nH]c2ccccc12)C(=O)N[C@@H](CCCN=C(N)N)C(=O)N[C@@H](CCCN=C(N)N)C(=O)N[C@@H](CCCN=C(N)N)C(=O)N[C@@H](Cc1c[nH]c2ccccc12)C(=O)N[C@@H](Cc1ccccc1)C(N)=O [FWRRWQWRRRWF]

MIC [10]: 0.8 µM (≈ 1.24 µg/mL) | MIC [11]: 12.5 µM (≈ 19.4 µg/mL) | MIC (Aureobasidium pullulans): ≥ 50 µM | MIC [12]: 6.3 µM (≈ 9.8 µg/mL) | MIC [13]: 25 µM (≈ 38.9 µg/mL) | MIC [14]: 25 µM (≈ 38.9 µg/mL)
SMILES: CC(C)[C@H](NC(=O)[C@H](CCCCN)NC(=O)[C@H](C)NC(=O)[C@@H](NC(=O)[C@@H](NC(=O)[C@H](CCCN=C(N)N)NC(=O)[C@H](CCCN=C(N)N)NC(=O)[C@H](Cc1c[nH]c2ccccc12)NC(=O)[C@H](Cc1c[nH]c2ccccc12)NC(=O)[C@H](C)N)[C@@H](C)O)C(C)C)C(=O)N[C@@H](CCCN=C(N)N)C(=O)N[C@@H](CCCCN)C(N)=O [AWWRRTVAKVRK]

MIC [25]: > 164 µM | MIC [26]: ≥ 164 µM | MIC [27]: ≥ 164 µM | MIC [28]: > 164 µM | MIC [29]: ≥ 164 µM
SMILES: CC(C)C[C@H](NC(=O)[C@H](CS)NC(=O)[C@H](Cc1cnc[nH]1)NC(=O)[C@H](C)NC(=O)[C@H](C)NC(=O)[C@H](CS)NC(=O)[C@H](C)NC(=O)[C@H](C)NC(=O)[C@@H](N)CC(=O)O)C(=O)N[C@@H](Cc1c[nH]c2ccccc12)C(=O)N[C@@H](CCCN=C(N)N)C(N)=O [DAACAAHCLWR]

MIC [1]: ≥ 41.4 µM | MIC (Bacillus cereus): ≥ 41.4 µM | MIC (Escherichia coli): > 41.4 µM | MIC (Leuconostoc lactis): ≥ 41.4 µM | MIC (Pseudomonas aeruginosa): > 41.4 µM | MIC (Micrococcus luteus): ≥ 41.4 µM | MIC [7]: > 41.4 µM | MIC (Enterobacter cloacae): ≥ 41.4 µM | MIC (Streptococcus uberis): ≥ 41.4 µM | MIC (Pasteurella multocida): ≥ 41.4 µM | MIC (Listeria innocua): ≥ 41.4 µM | MIC (Enterococcus faecalis): ≥ 41.4 µM | MIC [23]: > 41.4 µM
SMILES: CC[C@H](C)[C@H](NC(=O)CNC(=O)[C@H](CO)NC(=O)[C@@H](NC(=O)[C@H](CC(C)C)NC(=O)[C@H](CCC(=O)O)NC(=O)[C@H](CC(N)=O)NC(=O)[C@H](C)NC(=O)[C@H](CCCCN)NC(=O)[C@H](CCC(=O)O)NC(=O)[C@H](CCCCN)NC(=O)[C@@H](NC(=O)[C@H](CCCCN)NC(=O)[C@H](CCC(=O)O)NC(=O)[C@H](Cc1c[nH]c2ccccc12)NC(=O)[C@H](CC(C)C)NC(=O)CN)C(C)C)C(C)C)C(=O)N[C@H](C(=O)N[C@@H](CCC(=O)O)C(=O)NCC(=O)N[C@H](C(=O)N[C@@H](CCCCN)C(N)=O)C(C)C)C(C)C [GLWEKVKEKANELVSGIVEGVK]
